“And” between values parts separate entries of the source, which are not always exact repeats. Equal values may be shown once. Read-outs that look alike come from different tables or passages of the source. Marks after values point to notes of the source that are not given here.
Experiments:
[1] = tested on: IgG cross-linked on red blood cell surface; conditions: RBC of diabetic rats
Description: In vitro administration: 0.1 mol/L isoosmia PBS (pH7.4) was used as negative control, and it was used as solvent to form drug solutions of the compounds to be tested with different concentrations. Per 900 μl drug solution or solvent control was added with 100 μl RBC, slightly shaken at 37° C. for 16-18 h; centrifuged at 1000 g and 4° C. for 3 min, supernatant was discarded, 0.1 mol/L is PBS (pH7.4) was used to wash plate for 4 times to remove residual compound;
centrifuged at 1000 g and 4° C. for 3 min, a lower layer of RBC was obtained, diluted by 1:100 and used for ELISA assay.
Immunoadsorption assay protocol for IgG content cross-linked on RBC surface: Multiscreen-HA 0.45 μm 96 well microtiter plate (Millipore) was blocked with Superblock (300 μl/well) at 37° C. for 1 h; then dried at a reduced pressure of 5 mmHg, the plate was washed with PBST for 3 time, with 0.1 MPBS (pH7.4) for 3 times, and the plate was shaken for 1 min per time; the RBC to be tested was added (50 μl/well), and PBS background control wells were set (OD0); dried by suction at a reduced pressure; washed with 0.1mol/L PBS (pH7.4) 150 μl for 4 time, the plate was shaken for 1 min per time. After dried by suction at a reduced pressure, 1:500 diluted goat anti-mouse IgG-HRP (50 μl/well) was added, stood at room temperature for 2 h, dried by suction; washed with 0.1 mol/L PBS (pH7.4) 150μl/well for 3 times, the plate was shaken for 1 min per time; dried by suction; o-phenylene diamine (OPD) substrate coloration solution (100 μl/well) was added, stood at room temperature for 30 min under protection from light, the reaction was terminated with 2 mol/L H2SO4 (100 μl/well); the reaction liquid was quickly drawn off (150 μl/well) and transferred to a normal 96 well enzyme labeled plate, and OD values were measured at 490 nm.
Corrected OD=average OD of RBC sample to be tested−average OD of PBS background wells without RBC, the breaking rate of the compounds is expressed as the percentages of OD490 nm decrease: (OD490 nm of PBS wells−OD490 nm of the compound to be tested)/OD490 nm of PBS wells×100%.

diabetic rats = conditions: for HR / LVEDP / LVSP / Neg dp/dt / Pos dp/dt: 4 weeks
Description: Rats were anesthetized with pentobarbital sodium injection (0.8%, 50 mg/kg), subjected to tracheal cannula, heparin anticoagulation, right common carotid artery cannula to left ventricle, communicated with Biopac physiological recorder via pressure transducers to record left ventricular pressure tracing, and the software of Biopac (Acknowledge, Version 3) was used for real-time reacording: heart rate, left ventricular systolic pressure peak (LVSP), maximum rate of change of left intraventricular pressure (±dp/dtmax), left ventricular end diastolic pressure (LVEDP). After 10 min of postoperative stabilization, the above parameters were recorded continuously, and mean values for 30 s were used as the measured values of these parameters.

[2] = tested on: left ventricular cardiac muscle collagen of diabetic rats; conditions: printed for the group of A 18 mg/kg (three values), diabetic model 42.8±4.3, sodium
Description: After the end of vascular compliance experiment, the heart of each of rats was taken, trimmed to remove heart auricle and right ventricle and remain only left ventricle, the trimmed tissue block was planced in a mortar, added with a small amount of liquid nitrogen and ground rapidly, added with a small amount of liquid nitrogen again when the tissue became soft and ground continuously to form a fine powder, and stored at −70° C. for standby use. About 100 mg of cardiac muscle was weighed, added with 1 ml 200 μg/ml pepsin (solvent: 0.5 mol/L acetic acid), shaken at 37 ° C. for 2 h and 24 h, respectively, centrifuged at 40000 g for 60 min, the supernatants of pepsin digestion solutions for 2 h and 24 h were separately taken, hydrolyzed and measured to determine hydroxyproline contents (the methods for hydrolysis and measurement are the same as aforementioned). The dissolubility of cardiac muscle collagen is calculated by the following formula: […]

[3] = tested on: NaCl treated diabetic rats modeled with heart failure; conditions: 10 weeks; for BNP: blood plasma
Description: Second batch: NaCl treated diabetic rats modeled with heart failure for 20 weeks and normal control rats synchronically and conventionally drinking water were divided into 5 groups: normal control rats synchronically and conventionally drinking water group (Normal Control), model control group (Model Control), the compound A group (ig, 9 mg/kg), the compound A group (ig, 36 mg/kg), administered with drug once per day for consecutive 10 weeks. The pharmacodynamic evaluation on left ventricular function was conducted by using a ventricular chatheterization method.
SPSS statistic software was used to analyze and treat data, and all data were expressed in mean±standard deviation (Mean±SD).

[4] = tested on: AGE-BSA-collagen cross-links; conditions: n = 5
Description: AGE cross-link structures were prepared in vitro by cross-linking AGE-BSA to rat tail collagen coated on a 96 well ELISA plate. A ELISA method was used to evaluate the breaking effect of the compounds on AGE cross-links.
Normal Wister rats (body weight of 200±20 g) were sacrificed acutely, the tails were excised, and tail collagen was prepared at a temperature of 4° C. as follows. Tail tendon collagen fibrils were taken out, washed with physiological saline, peeled off non-collagen fibril tissues, rinsed with double-distilled water 3 times, cut into pieces, and immersed in 0.1% glacial acetic acid at 4° C. for one week during which it was shaken frequently. […] After dilution, the protein content was measured. […]
A solution containing 50 mg/ml of bovine serum albumin BSA (V) (Roch) and 0.5M of glucose in 0.2M PBS (pH 7.4) was incubated in dark at 37° C. under sterile condition for 3-4 months, to thereby form glycosylated BSA, i.e. BSA-AGE. […] Fluorescence scanning (Exi/Em (395/460 nm)) and SDS-PAGE were used to check the formation of BSA-AGE, and protein concentration was determined by the Lowery method.
The tail collagen coated 96 well ELISA plates were full-well treated with PBS (pH 7.4) for 1 hour to neutralize the acidic collagen. […] Within 10 minutes after the reaction, optical density (OD) was read at 450 nm on the BOBRAD Model 550 plate reader with the blank wells of the plates was set to 0. […]

[5] = tested on: tail collagen of diabetic rats; conditions: diabetic model 19.7±7.2
Description: Tail tendon collagen fibrils were taken out under ice-bath, washed with physiological saline, peeled off non-collagen tissues, lyophilized and stored at −70° C. for standby use.
The lyophilized tail collagen was cut into pieces, 2 mg of tail collagen was precisely weighed, added with 10 μg/ml pepsin (solvent: 0.5 mol/L acetic acid) to reach a final concentration of 5 μg pepsin/mg tail collagen, shanken at 4° C. for 2 h, centrifuged at 40000 g for 60 min, after the volume of supernatant was precisely measured, 500 μl of supernatant and total deposition were separately transferred into 5 ml ampules, added with 6 mol/L HCl, sealed, placed in calorstat oven, and hydrolyzed at 110° C. for 24 h.
Measurement of hydroxyproline concentration in the hydrolysis solution: (1) 100 μl of hydrolysis solution was taken from each of ampules, added with about 50 μl 10 mol/L NaOH to pH 6.0, and citric acid buffer solution (50 g citric acid.H2O, 72.36 g anhydrous sodium acetate, 34 g NaOH, 11.52 ml glacial acetic acid were mixed and added with water to 1200 ml, and added with 300 ml n-propanol) 850 μl. […] (4) 10% P-DMAB (1 g p-dimethylaminobenzaldehyde, added with 3.15 mol/L perchloric acid 2.6 ml to dissolve, then diluted with n-propanol to 10 ml, ready to use) 500 μl was added, mixed quickly at 75° C. water-bath for 10 min. […]

Q: Which results are given for `Cc1csc[n+]1CC(=O)O.[Na+]` [A, 3-carboxymethyl-4-methyl-thiazolium bromide sodium]?
A: Breaking rate (OD decrease, %) ([1]; 1 μM): 25.6 ± 2.1%; Breaking rate (OD decrease, %) ([1]; 10 μM): 26.9 ± 3.0%; Breaking rate (OD decrease, %) ([1]; 30 μM): 21.6 ± 5.0%; Breaking rate (OD decrease, %) ([1]; 100 μM): 26.0 ± 2.7%; HR (diabetic rats; 9 mg/kg i.g.): 361.80 ± 39.74 beat/min; LVEDP (diabetic rats; 9 mg/kg i.g.): 5.73 ± 1.44 mmHg; LVSP (diabetic rats; 9 mg/kg i.g.): 161.54 ± 13.98 mmHg; Neg dp/dt (diabetic rats; 9 mg/kg i.g.): 7762.8 ± 320.2 mmHg/s; Pos dp/dt (diabetic rats; 9 mg/kg i.g.): 12201.2 ± 1872.2 mmHg/s; HR (diabetic rats; 18 mg/kg i.g.): 377.35 ± 17.54 beat/min; LVEDP (diabetic rats; 18 mg/kg i.g.): 6.87 ± 1.26 mmHg; LVSP (diabetic rats; 18 mg/kg i.g.): 170.65 ± 8.94 mmHg; Neg dp/dt (diabetic rats; 18 mg/kg i.g.): 7660.8 ± 1154.8 mmHg/s; Pos dp/dt (diabetic rats; 18 mg/kg i.g.): 11712.8 ± 1370.9 mmHg/s; HR (diabetic rats; 36 mg/kg i.g.): 368.99 ± 31.66 beat/min; LVEDP (diabetic rats; 36 mg/kg i.g.): 6.79 ± 2.47 mmHg; LVSP (diabetic rats; 36 mg/kg i.g.): 168.25 ± 15.48 mmHg; Neg dp/dt (diabetic rats; 36 mg/kg i.g.): 7675.4 ± 2216.6 mmHg/s; Pos dp/dt (diabetic rats; 36 mg/kg i.g.): 11425.3 ± 1660.0 mmHg/s; effect on left ventricular functions (diabetic rats; 4 weeks of administration): significant effect in improving left ventricular functions; cardiac muscle collagen dissolubility [2]: 54.7±11.0% and 53.7±11.9% and 57.7±7.3%; Heart rate ([3]; 9 mg/kg ig): 418.3 ± 27.2 Beats/min; LVEDP ([3]; 9 mg/kg ig): 11.6 ± 2.9^d mmHg; LVSP ([3]; 9 mg/kg ig): 187.6 ± 22.3 mmHg; Neg dp/pt ([3]; 9 mg/kg ig): 10729 ± 2035^d mmHg/s; Pos dp/pt ([3]; 9 mg/kg ig): 10729 ± 2035^d mmHg/s; Heart rate ([3]; 36 mg/kg ig): 406.1 ± 32.9 Beats/min; LVEDP ([3]; 36 mg/kg ig): 13.0 ± 6.1^d mmHg; LVSP ([3]; 36 mg/kg ig): 189.2 ± 13.8 mmHg; Neg dp/pt ([3]; 36 mg/kg ig): 10033 ± 2044^d mmHg/s; Pos dp/pt ([3]; 36 mg/kg ig): 10033 ± 2044^d mmHg/s; BNP ([3]; 9 mg/kg ig): 50.8 ± 5.7 pg/mL; BNP ([3]; 36 mg/kg ig): 51.3 ± 8.1 pg/mL; Breaking rate (decrease % in OD) ([4]; 0.01 umol/L): 8.1 ± 4.76, n =5%; Breaking rate (decrease % in OD) ([4]; 0.1 umol/L): 11.3 ± 7.70, n = 5%; tail collagen dissolubility ([5]; A 18 mg/kg): 33.7±17.8%; tail collagen dissolubility ([5]; A 36 mg/kg): 37.5±11.1%

— patent US8338616B2, “Thiazoliums and their use for treating protein aging associated diseases” (Beijing Molecule Science And Technology Co., Ltd., priority 2008, dated 2012)
